Two compounds from patent US20090186838A1, “Amphotericin Derivatives” (Eidgenössische Technische Hochschule Zürich, priority 2006, published 2009) can be followed below.

Broadly, the MIC is the lowest concentration that inhibits growth of the organism.

For one assay, the system named is CAF2-1 C. albican wt. Description: MIC determination in Candida strain CAF2-1. Format: cell-based, Candida albicans. Particulars: Candida albicans. Here is the method:
(§1) In Vitro Antifungal Activity. MIC values for various strains were determined in accordance with the standard protocol from the National Committee of Clinical Laboratory Standards but using YEPD liquid medium instead of RPMI-1640 medium (National Committee of Clinical Laboratory Standards (Reference Method for Broth Dilution Antifungal Susceptibility Testing of Yeast, M27-A2, Approved Standard-Second Edition, Volume 22, Number 15, 1995). AmB was used as a reference. The strains were cultivated overnight in 5 mL YEPD liquid medium at 30 to 37° C. (30° C. for the strain BY4741; 37° C. for the strain DSY1764) with constant shaking. The saturated cultures were diluted to an ODB600 of 0.1 (3×10P^7 cells/mL). Using 24 wells plate, each well was prepared by adding 1% (12 μL) of DMSO solution of the tested polyene macrolide with 1% (12 μL) yeast cells solution and completed with YEPD (1.176 mL). The plates were sealed with Parafilm and then incubated for 18 to 36 hours at 30 to 37° C. (18 hours at 30° C. for the strain BY4741; 36 hours at 37° C. for the strain DSY1764). The optical density was read at 600 nm using 1.5 mL cuvettes. The MIC value was defined as the drug concentration needed to inhibit growth, less than 5% compared to a drug-free culture.
(§2) MIC values of the polyene macrolides 3, 9 and 10 (Diamine-AmB and its ester and diamide derivative, respectively) in various Candida strains including an AmB-resistant strain C. albicans (DSY1764, with the genotype erg3AΔ::hisG/erg3BΔ::hisG erg11Δ::hisG/erg11Δ::hisG-URA3-hisG) were determined.

Assay [1] has as its system DSY-654 C. albican mutant cdr1/2. Description: MIC determination in Candida strain DSY-654. It is filed as cell-based, Candida albicans. Particulars: Candida albicans. The method, then: as §1, §2

Converted amounts (≈) assume the structure as drawn.

Take `C[C@@H]1[C@H](O)[C@@H](C)/C=C/C=C/C=C/C=C/C=C/C=C/C=C/[C@H](O[C@@H]2O[C@H](C)[C@@H](O)[C@H](N(CCCN)CCCN)[C@@H]2O)CC2O[C@](O)(C[C@@H](O)C[C@@H](O)[C@H](O)CC[C@@H](O)C[C@@H](O)CC(=O)O[C@H]1C)C[C@H](O)[C@H]2C(=O)NCCN` [compound 10, 16-(N′-(2-Aminoethyl)-carboxamide)-N,N-di-(3-aminopropyl)-AmB]: in the assay with CAF2-1 C. albican wt, inhibition of growth (MIC) required 2 µM (≈ 2.16 µg/mL).

Regarding `COC(=O)[C@H]1[C@@H]2C[C@@H](O[C@@H]3O[C@H](C)[C@@H](O)[C@H](N(CCCN)CCCN)[C@@H]3O)/C=C/C=C/C=C/C=C/C=C/C=C/C=C/[C@H](C)[C@@H](O)[C@@H](C)[C@H](C)OC(=O)C[C@H](O)C[C@H](O)CC[C@@H](O)[C@H](O)C[C@H](O)C[C@](O)(C[C@@H]1O)O2` [compound 9, N,N-Di-(3-aminopropyl)-AmB Methyl Ester], the MIC was found to be 0.5 µM (≈ 0.526 µg/mL) in the assay with CAF2-1 C. albican wt and 0.25 µM (≈ 0.263 µg/mL) in assay [1].
